Results reported in ChEMBL document CHEMBL1157890, “Bioactivity-guided isolation of mosquitocidal constituents from the rhizomes of Plumbago capensis Thunb” (2010).
In brackets after ≈: the same amount, converted by molar mass. Activity calls are given as the source filed them. The calls are words filed in the database; no cut-off is given here.

Columns and labels:
[1] = test system: Aedes aegypti; test: Larvicidal activity against Aedes aegypti fourth instar larvae after 24 hrs; format: functional; conditions: for LC50: Aedes aegypti, 24 h
[2] = test system: Aedes aegypti; test: Larvicidal activity against Aedes aegypti fourth instar larvae at 20 ug/ml after 24 hrs; format: functional
[3] = test system: Aedes aegypti; test: Larvicidal activity against Aedes aegypti fourth instar larvae at 60 ug/ml after 24 hrs; format: functional, organism-based
[4] = test system: Aedes aegypti; test: Larvicidal activity against Aedes aegypti fourth instar larvae at 6.5 ug/ml after 24 hrs; format: functional

SMILES | LC90 [1] [µg/mL] | LC50 [1] [µg/mL] | Activity [2] [%] | Activity [3] | Activity [4] [%]
COC1=C(C)C(=O)c2cccc(O)c2C1=O | 55.72 (≈ 255 µM) | 31.5 (≈ 144 µM) | – | – | –
CC1=CC(=O)c2c(ccc(O)c2O)C1=O | 19.28 (≈ 94.4 µM) | 13.6 (≈ 66.8 µM) | 100 | – | –
CC1=CC(=O)c2c(ccc(-c3cc(O)c4c(c3C)C(=O)CCC4=O)c2O)C1=O | 42.72 (≈ 114 µM) | 31.2 (≈ 82.9 µM) | – | – | –
CC1=CC(=O)c2c(ccc(C3=C(C)C(=O)c4cccc(O)c4C3=O)c2O)C1=O | – | – | – | inactive | –
C[C@H]1C[C@H](O)c2cccc(O)c2C1=O | – | – | – | inactive | –
C[C@H]1CC(=O)c2c(O)cccc2[C@H]1O [ISOSHINANOLONE] | 4.1 (≈ 21.3 µM) | 1.26 (≈ 6.56 µM) | – | – | –
CC1=CC(=O)c2c(O)ccc(-c3ccc(O)c4c3C(=O)C(C)=CC4=O)c2C1=O [MARITINONE] | 53.87 (≈ 144 µM) | 40.7 (≈ 109 µM) | – | – | –
CC1=CC(=O)c2c(O)cccc2C1=O [PLUMBAGIN] | 6.56 (≈ 34.9 µM) | 5.43 (≈ 28.9 µM) | – | – | 100
C=C(C)[C@H]1Cc2c(ccc3c2O[C@@H]2COc4cc(OC)c(OC)cc4[C@@H]2C3=O)O1 [ROTENONE] | 25 (≈ 63.4 µM) | 6.2 (≈ 15.7 µM) | – | – | –
